The subject of this experiment is mixture of bacteria. The experiment can be described thus: CTFA Preservative Challenge Test on a shampoo. Type of experiment: cell-based. To be noted: for Mixed Bacteria Day 7 Count / Mixed Bacteria Day 14 Count: shampoo containing the sample, initial count 4×10^6 cfu/mL; for kill reduction: shampoo, mixed bacteria. As for the experimental part:
The CTFA Preservative Challenge Test was performed on a shampoo containing the samples below against a mixture of bacteria having an initial count of 4×10^6 cfu/mL. The shampoos inoculated with bacteria were allowed to stand for 7 or 14 days. The samples were evaluated for surviving organisms on day 7 or day 14 for bacteria-innoculated shampoos.
E. Kull et al., “Mixtures of Quaternary Ammonium Compounds and Long-chain Fatty Acids as Antifungal Agents”, Applied Microbiology, 9:538-541 (1961). The synergism value (QA/Qa+QB/Qb) was determined. […] Qb is the concentration of pircotine olamine alone (in percent by weight) required to yield 100% retardation of the bacteria. When the value of (QA/Qa +QB/Qb) is less than one, the mixture is synergistic. Values for (QA/Qa+QB/Qb) of 1 and greater represent an additive effect and an antagonistic effect, respectively.

For `Cc1cc(CC(C)CC(C)(C)C)n(O)c(=O)c1.NCCO` (centres unmarked) [0.1% Piroctone olamine, piroctone olamine], the “concentration alone required to yield 100% retardation of the bacteria (Qa, Qb)” value (percent by weight in shampoo, plate count <10 cfu/g after 14 days) is above 0.1%. Also, under “day 7”, the “Mixed Bacteria Day 7 Count” value is 1.2 × 10^5 cfu/mL and the kill reduction result is reported as “(<97% kill reduction)”. For the setting “day 14”, the “Mixed Bacteria Day 14 Count” value is recorded as 1.3 × 10^5 cfu/mL and the kill reduction entry is given as “(<97% kill reduction)”.

Regarding `COc1ccc(C(=O)[O-])cc1.[Na+]` [1% sodium p-anisate, sodium p-anisate], for the setting “day 7”, the “Mixed Bacteria Day 7 Count” value was 2.3 × 10^4 cfu/mL and the kill reduction result is “(<99% kill reduction)”.

As to `CCCCCCCCCCCCCCCC[n+]1ccccc1` [1% cetylpyridinium chloride, cetylpyridinium chloride], the “Mixed Bacteria Day 14 Count” value (day 14) is 7 × 10^3 cfu/mL.

These data come from patent US20190343749A1, “PROTECTANTS” (Lincoln Manufacturing Inc., priority 2018, published 2019).
